The subject of the assay is SK-N-SH human neuroblastoma cells. Nature of the assay: Serum Deprivation/JC-1 Mitochondrial Membrane Potential (MMP) Assay. The assay is classed as cell-based. The note with it: for Emax: percent maximal intensity in JC-1 ratio normalized to peak value for 10 μM dimebolin, read-out: JC-1 max %; for EC50: serum deprivation ~18 hours, JC-1 ratio normalized to peak value for 10 μM dimebolin, single curve fit to mean of n=2-3. As for the experimental part:
SK-N-SH human neuroblastoma cells obtained from American Type Culture Collection (Rockville, Md.) were maintained in the log phase of growth in Minimal Essential Media (MEM), 10% heat inactivated fetal calf serum and 100 units/mL antibiotic-antimycotic (AA). Cells were cultured and maintained in a humidified incubator at 37° C. under 5% CO2 and 95% air. Cells were trypsinized (0.25%) and subcultured every 3 days and used from 15-18 passages. All cell culture supplies were obtained from Invitrogen (Carlsbad, Calif.).
SK-N-SH cells were plated 2-3 days in advance at a concentration of 50,000 cells/well onto collagen coated black-walled 96 well plates (Becton-Dickinson, Bedford, Mass.) in a total volume of 200 μL. On day of experimental treatment, the media containing serum was aspirated from each well and rinsed once with MEM/1% AA without serum. The cells then were incubated overnight in 100 μL of MEM/1% AA (no serum) with and without dimebolin or novel chemical entities overnight for ˜18 hours. The following day, JC-1 dye (5,5′,6,6′-tetrachloro-1,1′,3,3′-tetraethylbenzimidazolcarbocyanide) was diluted 1:10 into MEM media according to the JC-1 Mitochondrial Membrane Potential Assay Kit: (Cayman Chemical Company, Ann Arbor, Mich.) and then 10 μL of the JC-1 dye solution was added to each well. The plates were centrifuged for 5 minutes at 400×g at room temperature followed by 35 minute incubation at 37° C. The plates were washed twice with 200 μL of provided Assay Buffer followed an addition of 100 μL of Assay Buffer to each well. The plates were read with an excitation and emission of 560 nm and 595 nM for red fluorescence and with an excitation and emission of […] and 535 nM for green fluorescence to determine the final JC-1 value taking the red to green fluorescence ratio. This assay is based on change in mitochondrial membrane potential (MMP) using this lipophilic cationic dye, JC-1, by monitoring the changes in the ratio of red to green fluorescence as the MMP depolarizes. This change in MMP reflects the health of the cell with healthy, viable cells have a high JC-1 ratio and high MMP whereas apoptotic, unhealthy cells have a low JC-1 ratio or low MMP.
For the ability of compounds to reverse the stress due to serum deprivation and increase the JC-1 ratio, the percent maximal intensity in JC-1 ratio was normalized to that induced by the peak value for 10 μM dimebolin and plotted against the compound concentration to calculate EC50 values and to control for plate-to-plate variability. Concentration-response data were analyzed using GraphPad Prism (San Diego, Calif.); the EC50 values were derived from a single curve fit to the mean data of n=2-3, in duplicates.
All compounds were dissolved in dimethyl sulfoxide at 10 mM stock solutions and tested at a concentration that the dimethyl sulfoxide levels never exceeded 1%.

The term EC50 denotes the concentration that produces a half-maximal response.

`Cc1ccc(/C=C/c2cccc3c4c([nH]c23)C[C@H]2CC[C@@H]4N2)cn1` (single isomer, unassigned) [Example 25]: the EC50 stood at 5.99 µM. Under “Homo sapiens, SK-N-SH, 18 h”, the Emax turned out to be 173% and the EC50 stood at 6.25 µM.
Take `CN1[C@@H]2CC[C@H]1c1c([nH]c3c(OCc4ccccc4)cccc13)C2` (stereo in doubt) [Example 5, (7R*,10S*)-4-(benzyloxy)-11-methyl-5,6,7,8,9,10-hexahydro-7,10-epiminocyclohepta[b]indole]: for the setting “Homo sapiens, SK-N-SH, 18 h”, the Emax was 24% and the half-maximal effective concentration (EC50) was above 30 µM.
Taken in the same sequence, the figures for `CN1[C@H]2CC[C@@H]1c1c([nH]c3c(OCc4ccccc4)cccc13)C2` (stereo in doubt) [Example 6, (7S*,10R*)-4-(benzyloxy)-11-methyl-5,6,7,8,9,10-hexahydro-7,10-epiminocyclohepta[b]indole] were 55% and 4.59 µM.
`CN1[C@@H]2CCC[C@H]1c1c([nH]c3c(OCc4ccccc4)cccc13)C2` (stereo in doubt) [Example 7, (−)-(7R*,11S*)-4-(benzyloxy)-12-methyl-6,7,8,9,10,11-hexahydro-5H-7,11-epiminocycloocta[b]indole]: for the setting “Homo sapiens, SK-N-SH, 18 h”, the Emax came to 120% and the EC50 came out at 5.41 µM.
For `CN1[C@H]2CCC[C@@H]1c1c([nH]c3c(OCc4ccccc4)cccc13)C2` (stereo in doubt) [Example 8, (+)-(7S*,11R*)-4-(benzyloxy)-12-methyl-6,7,8,9,10,11-hexahydro-5H-7,11-epiminocycloocta[b]indole] the same measures were 107% and 8.52 µM.
On to `c1ccc(COc2cccc3c4c([nH]c23)C[C@@H]2CCC[C@H]4N2)cc1` (stereo in doubt) [Example 10, (7S*,11R*)-4-(benzyloxy)-6,7,8,9,10,11-hexahydro-5H-7,11-epiminocycloocta[b]indole], for which, under “Homo sapiens, SK-N-SH, 18 h”, the Emax turned out to be 128% and the concentration for a half-maximal effect (EC50) turned out to be 4.81 µM.
For `Cc1ccc(/C=C/c2cccc3c4c([nH]c23)C[C@@H]2CC[C@H]4N2C)cn1` (stereo in doubt) [Example 14, (+)-(7S*,10R*)-11-methyl-4-[(E)-2-(6-methylpyridin-3-yl)vinyl]-5,6,7,8,9,10-hexahydro-7,10-epiminocyclohepta[b]indole] the same measures were 162% and 4.34 µM.
Taken in the same sequence, the figures for `Cc1ccc(/C=C/c2cccc3c4c([nH]c23)C[C@H]2CC[C@@H]4N2C)cn1` (stereo in doubt) [Example 15, (−)-(7R*,10S*)-11-methyl-4-[(E)-2-(6-methylpyridin-3-yl)vinyl]-5,6,7,8,9,10-hexahydro-7,10-epiminocyclohepta[b]indole] were 160% and 3.04 µM.
In the case of `Cc1ccc(C#Cc2cccc3c4c([nH]c23)C[C@@H]2CC[C@H]4N2C)cn1` (stereo in doubt) [Example 16, (+)-(7S*,10R*)-11-methyl-4-[(6-methylpyridin-3-yl)ethynyl]-5,6,7,8,9,10-hexahydro-7,10-epiminocyclohepta[b]indole], under “Homo sapiens, SK-N-SH, 18 h”, the Emax was 193% and the EC50 worked out at 5.11 µM.
For `Cc1ccc(C#Cc2cccc3c4c([nH]c23)C[C@H]2CC[C@@H]4N2C)cn1` (stereo in doubt) [Example 17, (−)-(7R*,10S*)-11-methyl-4-[(6-methylpyridin-3-yl)ethynyl]-5,6,7,8,9,10-hexahydro-7,10-epiminocyclohepta[b]indole] the same measures were 182% and 3.87 µM.
Taken in the same sequence, the figures for `Cc1ccc(CCc2cccc3c4c([nH]c23)CC2CCC4N2C)cn1` (stereo not drawn) [Example 2, 11-methyl-4-[2-(6-methylpyridin-3-yl)ethyl]-5,6,7,8,9,10-hexahydro-7,10-epiminocyclohepta[b]indole] were 173% and 5.25 µM.
Taken in the same sequence, the figures for `Cc1ccc(C#Cc2cccc3c4c([nH]c23)CC2CCC4N2C)cn1` (stereo not drawn) [Example 3, 11-methyl-4-[(6-methylpyridin-3-yl)ethynyl]-5,6,7,8,9,10-hexahydro-7,10-epiminocyclohepta[b]indole] were 244% and 6.18 µM.
Turning to `Cc1ccc(/C=C/c2ccc3[nH]c4c(c3c2)C2CCC(C4)N2C)cn1` (stereo not drawn) [Example 4, 11-methyl-2-[(E)-2-(6-methylpyridin-3-yl)vinyl]-5,6,7,8,9,10-hexahydro-7,10-epiminocyclohepta[b]indole], where the note is “Homo sapiens, SK-N-SH, 18 h”, the Emax stood at 239% and the EC50 was 3.62 µM.
Taken in the same sequence, the figures for `CN1C2CCC1c1c([nH]c3c(-c4ccc(Cl)cc4)cccc13)C2` (stereo not drawn) [Example 11, 4-(4-chlorophenyl)-11-methyl-5,6,7,8,9,10-hexahydro-7,10-epiminocyclohepta[b]indole] were 74% and 8.03 µM.
For `Cc1ccc(/C=C/c2cc(F)cc3c4c([nH]c23)CC2CCC4N2C)cn1` (stereo not drawn) [Example 12, 2-fluoro-11-methyl-4-[(E)-2-(6-methylpyridin-3-yl)vinyl]-5,6,7,8,9,10-hexahydro-7,10-epiminocyclohepta[b]indole] the same measures were 200% and 7.83 µM.
Taken in the same sequence, the figures for `Cc1ccc(/C=C/c2cccc3c4c([nH]c23)CC2CCC4N2)cn1` (stereo not drawn) [Example 13, 4-[(E)-2-(6-methylpyridin-3-yl)vinyl]-5,6,7,8,9,10-hexahydro-7,10-epiminocyclohepta[b]indole] were 164% and 4.62 µM.
Turning to `CC(=O)N1C2CCC1c1c([nH]c3c(/C=C/c4ccc(C)nc4)cccc13)C2` (stereo not drawn) [Example 18, 11-acetyl-4-[(E)-2-(6-methylpyridin-3-yl)vinyl]-5,6,7,8,9,10-hexahydro-7,10-epiminocyclohepta[b]indole], under “Homo sapiens, SK-N-SH, 18 h”, the Emax was 146% and the concentration giving a half-maximal response (EC50) came out at 10.6 µM.
For `COC(=O)N1C2CCC1c1c([nH]c3c(/C=C/c4ccc(C)nc4)cccc13)C2` (stereo not drawn) [Example 19, methyl 4-[(E)-2-(6-methylpyridin-3-yl)vinyl]-5,6,7,8,9,10-hexahydro-7,10-epiminocyclohepta[b]indole-11-carboxylate] the same measures were 178% and 5.37 µM.
Consider `COC(=O)N1C2CCC1c1c([nH]c3c(-c4ccc5ccncc5c4)cccc13)C2` (stereo not drawn) [Example 20, methyl 4-isoquinolin-7-yl-5,6,7,8,9,10-hexahydro-7,10-epiminocyclohepta[b]indole-11-carboxylate], for which, for the setting “Homo sapiens, SK-N-SH, 18 h”, the Emax is 292% and the EC50 is 9.94 µM.
Taken in the same sequence, the figures for `COC(=O)N1C2CCC1c1c([nH]c3c(-c4ccc5ncccc5c4)cccc13)C2` (stereo not drawn) [Example 22, methyl 4-quinolin-6-yl-5,6,7,8,9,10-hexahydro-7,10-epiminocyclohepta[b]indole-11-carboxylate] were 204% and 6.44 µM.
Taken in the same sequence, the figures for `CC(=O)N1C2CCC1c1c([nH]c3c(-c4ccc5ncccc5c4)cccc13)C2` (stereo not drawn) [Example 23, 11-acetyl-4-quinolin-6-yl-5,6,7,8,9,10-hexahydro-7,10-epiminocyclohepta[b]indole] were 209% and 6.11 µM.
For `Cc1ccc(/C=C/c2cccc3c4c(n(C)c23)CC2CCC4N2)cn1` (stereo not drawn) [Example 24, 5-methyl-4-[(E)-2-(6-methylpyridin-3-yl)vinyl]-5,6,7,8,9,10-hexahydro-7,10-epiminocyclohepta[b]indole] the same measures were 217% and 3.85 µM.
As for `Clc1ccc(-c2cccc3c4c([nH]c23)CC2CCC4N2)cn1` (stereo not drawn) [Example 27, 4-(6-chloropyridin-3-yl)-5,6,7,8,9,10-hexahydro-7,10-epiminocyclohepta[b]indole], under “Homo sapiens, SK-N-SH, 18 h”, the Emax was determined as 104% and the EC50 came out at 10.2 µM.
Turning to `Clc1ccc(-c2ccc(-c3cccc4c5c([nH]c34)CC3CCC5N3)cn2)cn1` (stereo not drawn) [Example 28, 4-(6′-chloro-2,3′-bipyridin-5-yl)-5,6,7,8,9,10-hexahydro-7,10-epiminocyclohepta[b]indole], for the setting “Homo sapiens, SK-N-SH, 18 h”, the Emax was determined as 118% and the EC50 worked out at 5.5 µM.
For `CC(=O)N1C2CCC1c1c([nH]c3c(-c4ccc(Cl)nc4)cccc13)C2` (stereo not drawn) [Example 29, 1-[4-(6-chloropyridin-3-yl)-5,6,7,8,9,10-hexahydro-7,10-epiminocyclohepta[b]indol-11-yl]ethanone] the same measures were 114% and 5.31 µM.
